Measurements reported in ChEMBL document CHEMBL2034941, “Toward Overcoming Staphylococcus aureus Aminoglycoside Resistance Mechanisms with a Functionally Designed Neomycin Analogue” (2011).
Converted amounts (≈) assume the structure as drawn.

Key:
Format in all cases: functional
Staphylococcus aureus [1] = assay: Antimicrobial activity against Staphylococcus aureus harboring APH(2'''') and AAC(6') enzymes
Staphylococcus aureus [2] = assay: Antimicrobial activity against Staphylococcus aureus harboring APH(3'/5'''')-3 enzyme
Staphylococcus aureus [3] = assay: Antimicrobial activity against Staphylococcus aureus harboring ANT(4')-1 enzyme
Staphylococcus aureus [4] = assay: Antimicrobial activity against Staphylococcus aureus ATCC 29213
Staphylococcus aureus [5] = assay: Antimicrobial activity against methicillin-resistant Staphylococcus aureus clinical isolate
Staphylococcus aureus [6] = assay: Ratio of amikacin MIC50 to compound MIC50 for methicillin-resistant Staphylococcus aureus clinical isolate
Staphylococcus aureus [7] = assay: Ratio of amikacin MIC90 to compound MIC90 for methicillin-resistant Staphylococcus aureus clinical isolate

| Compound | MIC (Staphylococcus aureus [1]) | MIC (Staphylococcus aureus [2]) | MIC (Staphylococcus aureus [3]) | MIC (Staphylococcus aureus [4]) | MIC50 (Staphylococcus aureus [5]) | MIC90 (Staphylococcus aureus [5]) | Ratio (Staphylococcus aureus [6]) | Ratio (Staphylococcus aureus [7]) |
| --- | --- | --- | --- | --- | --- | --- | --- | --- |
| NCC[C@H](O)C(=O)N[C@@H]1C[C@H](N)[C@@H](O[C@H]2O[C@H](CO)[C@@H](O)[C@H](O)[C@H]2N)[C@H](O[C@@H]2O[C@H](CO)[C@@H](O[C@H]3O[C@@H](CN)[C@@H](O)[C@H](O)[C@H]3N)[C@H]2O)[C@H]1O | > 32 µg/mL | 32 µg/mL (≈ 44.6 µM) | > 64 µg/mL | 2 µg/mL (≈ 2.79 µM) | – | – | – | – |
| NC[C@H]1CC[C@@H](N)[C@@H](O[C@H]2[C@@H](O)[C@H](O[C@@H]3[C@@H](O)[C@H](N)C[C@H](N)[C@H]3O[C@H]3O[C@H](CO)CC[C@H]3N)O[C@@H]2CO)O1 | > 32 µg/mL | – | 4 µg/mL (≈ 7.25 µM) | 2 µg/mL (≈ 3.63 µM) | – | – | – | – |
| NCC[C@H](O)C(=O)N[C@@H]1C[C@H](N)[C@@H](O[C@H]2O[C@H](CO)CC[C@H]2N)[C@H](O[C@@H]2O[C@H](CO)[C@@H](O[C@H]3O[C@@H](CN)CC[C@H]3N)[C@H]2O)[C@H]1O | 16 µg/mL (≈ 24.5 µM) | – | 8 µg/mL (≈ 12.3 µM) | 1 µg/mL (≈ 1.53 µM) | – | – | – | – |
| NC[C@@H]1CC[C@@H](N)[C@@H](O[C@H]2[C@H](O[C@@H]3O[C@H](CO)[C@@H](O[C@H]4O[C@@H](CN)CC[C@H]4N)[C@H]3O)[C@@H](O)[C@H](N)C[C@@H]2N)O1 | > 64 µg/mL | 32 µg/mL (≈ 58.1 µM) | 0.5 µg/mL (≈ 0.908 µM) | 0.5 µg/mL (≈ 0.908 µM) | – | – | – | – |
| NCC[C@H](O)C(=O)N[C@@H]1C[C@H](N)[C@@H](O[C@H]2O[C@H](CN)CC[C@H]2N)[C@H](O[C@@H]2O[C@H](CO)[C@@H](O[C@H]3O[C@@H](CN)CC[C@H]3N)[C@H]2O)[C@H]1O | 2 µg/mL (≈ 3.07 µM) | 1 µg/mL (≈ 1.53 µM) | 1 µg/mL (≈ 1.53 µM) | 0.5 µg/mL (≈ 0.767 µM) | 0.25 µg/mL (≈ 0.384 µM) | 0.5 µg/mL (≈ 0.767 µM) | >64 | >64 |
| NCC[C@H](O)C(=O)N[C@@H]1C[C@H](N)[C@@H](O[C@H]2O[C@H](CN)[C@@H](O)[C@H](O)[C@H]2O)[C@H](O)[C@H]1O[C@H]1O[C@H](CO)[C@@H](O)[C@H](N)[C@H]1O [AMIKACIN] | 64 µg/mL (≈ 109 µM) | 8 µg/mL (≈ 13.7 µM) | 64 µg/mL (≈ 109 µM) | 4 µg/mL (≈ 6.83 µM) | 32 µg/mL (≈ 54.6 µM) | > 64 µg/mL | – | – |
| NC[C@@H]1O[C@H](O[C@H]2[C@@H](O)[C@H](O[C@@H]3[C@@H](O)[C@H](N)C[C@H](N)[C@H]3O[C@H]3O[C@H](CN)[C@@H](O)[C@H](O)[C@H]3N)O[C@@H]2CO)[C@H](N)[C@@H](O)[C@@H]1O [FRAMYCETIN] | > 64 µg/mL | > 64 µg/mL | > 64 µg/mL | 0.5 µg/mL (≈ 0.813 µM) | – | – | – | – |
| CN[C@@H]1[C@@H](O)[C@@H](O[C@@H]2[C@@H](O)[C@H](O[C@H]3O[C@H]([C@@H](C)NC)CC[C@H]3N)[C@@H](N)C[C@H]2N)OC[C@]1(C)O [GENTAMICIN C1] | > 64 µg/mL | 0.5 µg/mL (≈ 1.05 µM) | 0.5 µg/mL (≈ 1.05 µM) | 0.5 µg/mL (≈ 1.05 µM) | > 32 µg/mL | > 32 µg/mL | – | – |
| NC[C@@H]1O[C@H](O[C@H]2[C@@H](O)[C@H](O[C@@H]3[C@@H](O)[C@H](N)C[C@H](N)[C@H]3O[C@H]3O[C@H](CO)[C@@H](O)[C@H](O)[C@H]3N)O[C@@H]2CO)[C@H](N)[C@@H](O)[C@@H]1O [PAROMOMYCIN] | > 64 µg/mL | > 64 µg/mL | > 64 µg/mL | 2 µg/mL (≈ 3.25 µM) | – | – | – | – |
| NC[C@H]1O[C@H](O[C@H]2[C@H](O[C@@H]3O[C@H](CO)[C@@H](O)[C@H]3O)[C@@H](O)[C@H](N)C[C@@H]2N)[C@H](N)[C@@H](O)[C@@H]1O [RIBOSTAMYCIN] | > 64 µg/mL | > 64 µg/mL | > 64 µg/mL | 8 µg/mL (≈ 17.6 µM) | – | – | – | – |
| butirosin | > 32 µg/mL | > 32 µg/mL | > 32 µg/mL | 8 µg/mL | – | – | – | – |
